Results as given in patent publication US20120142723A1, “ACE2 ACTIVATOR COMPOUNDS AND METHODS OF USE THEREOF” (University of Florida Research Foundation, Inc., priority 2006, published 2012).
Entries after “also recorded” stand apart in the source; their conditions may differ. Read-outs that look alike come from different tables or passages of the source.

Tests used:
[1] = Solubility as observed during assays and formulation; format: physicochemical
Description: Recombinant ACE and ACE2 were obtained in purified form from R&D Systems, Minneapolis, Minn. (catalog ID: 929-ZN-10 and 933-ZN-10, respectively). Substrates for ACE (fluorogenic peptide V, Mca-RPPGFSAFK(Dnp)-OH, catalog ID: ES005), and for ACE2 (fluorogenic peptide VI, Mca-YVADAPK(Dnp)-OH, catalog ID: ES007) were also obtained from R&D systems. Top scoring molecules were obtained from the National Cancer Institute (NCI) for functional testing. Dry compounds were resuspended in 100% DMSO to prepare 100 mM stock solutions, according to the amount of compound provided by the NCI and its molecular weight. Gentle heating to 60-80 C was carried out to assist their solubilization. Some compounds were further diluted to 50 mM stocks if clearly difficult to dissolve.
XNT was dissolved in saline at low pH (2-2.5) for in vivo studies. This compound was consistently prepared 24-48 hours before delivery in animals. XNT was prepared on a gram scale in six synthetic steps from 5-methoxysalicylic acid and m-chloroiodobenzene through modifications of a published procedure (Archer et al., J. Med. Chem. 26:1240-1246 (1983); Archer et al., J. Med. Chem. 31:254-260 (1988).

human recombinant ACE2 = target: T1, human recombinant ACE2 (Homo sapiens, UniProt Q9BYF1); experiment: ACE2 activity assay with fluorogenic peptide VI; format: biochemical
T1 construct: purchased R&D Systems, Minneapolis, Minn; 933-ZN-10
Experimental: (§1) Activity of ACE and ACE2 was measured with a Spectra Max Gemini EM Florescence Reader (Molecular Devices). The enzyme removes the c-terminal dinitrophenyl moiety that quenches the inherent fluorescence of its 7-methoxycoumain group, resulting in an increase in fluorescence in the presence of enzyme activity. Fluorescence was measured with excitation and emission spectra of 328 nm and 392 nm, respectively. Reaction mixtures were prepared in 100 μl volumes and different concentrations of compound were tested against 10 μM substrate. 10 nM enzyme in 100 mM NaCl, 75 mM Iris, 0.5 μM ZnCl2, at pH 7.4. Samples were read every 15-20 seconds for at least 30 minutes immediately after the addition of fluorogenic peptide substrate at 37° C. Assays, including controls, were performed in the presence of 1% dimethyl sulfoxide (DMSO). Although higher concentrations of NaCl increase the activity of ACE2 and ACE (Vickers et al. 2002), a low concentration of salt (100 mM NaCl) was used in the assays to allow for enhancement of enzymatic activity to be detectable. That is, using 1 M NaCl which gives a maximal enhancing effect from the Cl ions might not allow the compounds to further enhance the activity of the enzyme. The lower salt concentration should give the compounds available room for activation.
Controls in the presence and absence of DMSO and without compound were carried out to evaluate the effect of DMSO on the activity of ACE and ACE2. Assays with no DMSO, 1% DMSO, and 2% DMSO were performed in identical conditions (i.e, pH, temperature, salt concentration, reaction mix volume and so on) to those of the experimental assays.
The experimental assays were corrected at each concentration since higher or lower concentrations of compounds affected the background signal in a concentration dependent manner.
Human recombinant ACE and ACE2 were obtained from R&D systems, Minneapolis, Minn., along with their respective fluorogenic substrates (ACE, catalog ID: 929-ZN-10; ACE2, 933-ZN-10; ACE substrate, fluorogenic peptide V, Mca RPPGFSAFK(Dnp)-OH, catalog ID: ES005; ACE2 substrate, fluorogenic peptide VI, Mca-YVADAPK(Dnp)-OH, ES007). Enzymatic activity was measured with a Spectra Max Gemini EM Fluorescence Reader (Molecular Devices) (Huentelman et al., Regul. Pept. 122:61-67 (2004)). Compounds were tested against 50 μM substrate. All assays were performed at least in triplicate in a reaction mixture containing 10 nM enzyme, 1 M NaCl, 75 mM Tris-HCl, 1% DMSO and 0.5 μM ZnCl2, at pH 7.4. Samples were read every 15-30 seconds for at least 30 minutes immediately after the addition of fluorogenic peptide substrates at 37° C. […] Enzyme activity was corrected for background.

Human recombinant ACE = target: T2, Human recombinant ACE (Homo sapiens, UniProt P12821); experiment: ACE activity assay with fluorogenic peptide V; format: biochemical
T2 construct: purchased R&D Systems, Minneapolis, Minn; 929-ZN-10
Experimental: as §1
Controls in the presence and absence of DMSO and without compound were carried out to evaluate the effect of DMSO on the activity of ACE and ACE2. […]
Human recombinant ACE and ACE2 were obtained from R&D systems, Minneapolis, Minn., along with their respective fluorogenic substrates (ACE, catalog ID: 929-ZN-10; ACE2, 933-ZN-10; ACE substrate, fluorogenic peptide V, Mca RPPGFSAFK(Dnp)-OH, catalog ID: ES005; ACE2 substrate, fluorogenic peptide VI, Mca-YVADAPK(Dnp)-OH, ES007). Enzymatic activity was measured with a Spectra Max Gemini EM Fluorescence Reader (Molecular Devices) (Huentelman et al., Regul. Pept. 122:61-67 (2004)). […] Samples were read every 15-30 seconds for at least 30 minutes immediately after the addition of fluorogenic peptide substrates at 37° C. […]

[2] = listed as resorcinolnaphthalein

T2 sequence (P12821 30-1261 limits assumed): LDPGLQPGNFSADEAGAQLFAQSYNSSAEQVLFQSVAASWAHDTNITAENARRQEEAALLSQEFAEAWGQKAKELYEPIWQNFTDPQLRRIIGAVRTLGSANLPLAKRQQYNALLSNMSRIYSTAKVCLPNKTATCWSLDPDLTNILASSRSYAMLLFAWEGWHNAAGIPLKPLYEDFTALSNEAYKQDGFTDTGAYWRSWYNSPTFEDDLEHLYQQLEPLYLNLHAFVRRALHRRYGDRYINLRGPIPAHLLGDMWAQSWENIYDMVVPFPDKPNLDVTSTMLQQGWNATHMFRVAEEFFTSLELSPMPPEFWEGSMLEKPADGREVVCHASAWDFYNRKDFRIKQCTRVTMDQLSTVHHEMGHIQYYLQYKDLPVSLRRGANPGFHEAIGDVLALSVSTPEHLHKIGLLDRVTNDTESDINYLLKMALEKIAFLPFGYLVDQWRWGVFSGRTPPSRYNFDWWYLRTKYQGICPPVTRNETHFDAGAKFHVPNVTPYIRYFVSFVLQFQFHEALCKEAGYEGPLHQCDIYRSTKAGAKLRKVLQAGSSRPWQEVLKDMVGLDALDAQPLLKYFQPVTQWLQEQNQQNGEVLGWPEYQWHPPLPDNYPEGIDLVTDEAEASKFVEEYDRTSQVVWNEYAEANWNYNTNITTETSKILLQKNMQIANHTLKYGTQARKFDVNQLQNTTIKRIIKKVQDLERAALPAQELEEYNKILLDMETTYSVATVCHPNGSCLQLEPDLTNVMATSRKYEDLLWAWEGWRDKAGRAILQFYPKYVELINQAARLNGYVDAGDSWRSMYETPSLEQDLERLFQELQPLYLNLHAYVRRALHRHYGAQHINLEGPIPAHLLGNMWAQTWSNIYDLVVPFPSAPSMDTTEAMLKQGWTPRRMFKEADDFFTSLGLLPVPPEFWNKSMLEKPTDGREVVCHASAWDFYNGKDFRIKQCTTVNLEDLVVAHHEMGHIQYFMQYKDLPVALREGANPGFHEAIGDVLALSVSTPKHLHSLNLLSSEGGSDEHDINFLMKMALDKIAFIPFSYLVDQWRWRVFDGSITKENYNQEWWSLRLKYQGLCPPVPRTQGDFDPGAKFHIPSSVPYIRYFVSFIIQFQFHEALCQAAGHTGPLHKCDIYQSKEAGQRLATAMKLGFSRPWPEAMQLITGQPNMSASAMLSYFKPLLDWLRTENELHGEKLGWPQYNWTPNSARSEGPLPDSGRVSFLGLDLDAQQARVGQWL
T1 sequence (Q9BYF1 18-740 limits assumed): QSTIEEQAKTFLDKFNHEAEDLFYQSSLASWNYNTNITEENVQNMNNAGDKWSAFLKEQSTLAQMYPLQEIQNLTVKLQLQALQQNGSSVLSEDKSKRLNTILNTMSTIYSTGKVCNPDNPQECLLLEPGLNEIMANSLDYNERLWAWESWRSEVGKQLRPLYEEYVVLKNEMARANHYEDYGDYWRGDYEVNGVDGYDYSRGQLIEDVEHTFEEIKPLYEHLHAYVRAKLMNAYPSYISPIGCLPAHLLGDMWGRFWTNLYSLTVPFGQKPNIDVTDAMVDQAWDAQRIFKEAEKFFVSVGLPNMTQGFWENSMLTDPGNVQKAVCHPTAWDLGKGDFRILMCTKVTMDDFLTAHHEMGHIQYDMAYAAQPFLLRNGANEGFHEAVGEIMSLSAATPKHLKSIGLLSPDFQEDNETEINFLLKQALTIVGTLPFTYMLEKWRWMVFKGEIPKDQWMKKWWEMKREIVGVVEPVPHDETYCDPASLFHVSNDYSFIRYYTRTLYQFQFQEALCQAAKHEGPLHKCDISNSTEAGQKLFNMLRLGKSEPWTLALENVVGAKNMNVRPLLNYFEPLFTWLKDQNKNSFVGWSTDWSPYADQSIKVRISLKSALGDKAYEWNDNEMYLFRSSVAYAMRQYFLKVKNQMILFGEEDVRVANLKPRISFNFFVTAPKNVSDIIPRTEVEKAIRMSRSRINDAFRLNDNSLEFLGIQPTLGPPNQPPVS

solubility [1]: significantly more insoluble
ACE2 activity, dose response (human recombinant ACE2): did not show the same dose response
ACE2 activity (human recombinant ACE2; 100 μM compound): ACE2-specific enhancement
increase of ACE2 activity (human recombinant ACE2; 100 μM compound, FIG. 3, 40 minute time course): about 2 fold
ACE2 activity (human recombinant ACE2; 500 μM compound): returned down to control level
ACE2 activity (human recombinant ACE2; concentrations higher than 100 μM): inhibited ACE2
enhancement of ACE2 enzymatic activity (human recombinant ACE2; confirmation assay, 1% DMSO): 2 fold
increase of ACE2 activity (human recombinant ACE2; initial functional screening): about 2 fold
ACE2 activity, dose response (human recombinant ACE2; [2]): dose-dependent manner
ACE activity (Human recombinant ACE): do not enhance ACE activity
ACE activity (Human recombinant ACE; [2]): did not significantly affect
Structure (SMILES): O=C1OC2(c3ccc(O)cc3Oc3cc(O)ccc32)c2cccc3cccc1c23 [Compound 6, resorcinalnaphthalein]
ACE2 activity (human recombinant ACE2; 20, 50 and 100 μM compound): activated ACE2 identically; also recorded: identical curves
ACE activity (Human recombinant ACE; 50 or 100 μM compound): did not activate; also recorded: not enhanced
